From patent US20180188266A1, “Characterization of Type 1 Collagen Synthesis By Fluorescence Imaging and Related Drug Screening Technique” (Florida State University Research Foundation, Inc., priority 2017, published 2018)

Tested on: Type 1 collagen synthesis
Assay: Confocal fluorescence imaging of Type 1 collagen synthesis in cells expressing COLa1(I)/mTagBFP2 + WT COLa2(I)/mEmerald
Type: cell-based
Conditions: fixed human lung fibroblasts expressing COLa1(I)/mTagBFP2+WT COLa2(I)/mEmerald; treated for 24 hours vs untreated cell
Description: Three combinations of adenoviruses were used: • COLα1(I)/mTagBFP2 and WT COLα2(I)/mEmerald: images normal, regulated Type 1 collagen synthesis; • COLα1(I)/mTagBFP2 and MUT COLα2(I)/mEmerald: images collagen synthesis without regulation; and • COLα1(I)/mTagBFP2 and COLα2(I)/mEmeraldΔC: images absence of productive synthesis.
Adenoviruses were mixed in a ratio determined by the viral titer and added to human lung fibroblasts in culture. After 48 hours the cells were either fixed in 3.7% formalin, mounted on glass slides and imaged or they were directly imaged as live cells.
Confocal imaging of cells was performed either by Zeiss LSM 880 confocal microscope or Nikon Eclipse Ti laser spin disk confocal microscope in blue and green channels.
The drug used in the confocal microscopy imaging experiments was compound 60D17 of U.S. Pat. No. 8,729,090, which is incorporated by reference. Compound 60D17 has the following formula.

SMILES: COC(=O)CNC(=O)c1cc2c(=O)n3cccc(C)c3nc2n1C [compound 60D17]
- Effect on Type 1 collagen biosynthesis (confocal images, FIG. 4): perturbed
